Values of other authors, collected in patent publication US8791127B2, “Mucosal bioadhesive slow release carrier for delivering active principles” (BioAlliance Pharma, priority 2006, dated 2014).
Converted amounts (≈) assume the structure as drawn.

Tested on: HSV-1 virus
Settings: towards HSV-1 virus

## Nc1nc2c(ncn2COCCO)c(=O)[nH]1 [acyclovir]
  minimal inhibitory concentration (MIC): 0.0225 µg/mL (≈ 0.0999 µM)
